Patent publication US8569374B2, “NADPH oxidase inhibition pharmacotherapies for obstructive sleep apnea syndrome and its associated morbidities” (The Trustees of the University of Pennsylvania, priority 2004, dated 2013)
Entries after “also recorded” stand apart in the source; their conditions may differ.

Assays:
iNOS = iNOS activity in lateral basal forebrain homogenates ([14C] L-arginine to L-citrulline conversion); assay type: in vivo, mice; conditions: for LTIH increase in iNOS activity: apocynin throughout LTIH
Method: FIG. 5. NADPH oxidase inhibition confers resistance to the long-term intermittent hypoxia (LTIH) proinflammatory response. Proinflammatory gene expression was measured in micropunches in the lateral basal forebrains in gp91^phox wild type controls (gp91^phox WT, n=10) and gp91^phox null mice (gp91^phox null, n=10) for A, TNF-a; B, COX-2 and C, iNOS mRNA copies/2 µg total RNA. D. Total NOS activity (left columns), measured as L-arginine conversion of [^14C] L-arginine to L-citrulline and iNOS activity (right columns) was measured using […] S-Ethyl-N-[4-trifluoromethyl)phenyl]isothiourea (ETPI) added to homogenates (12). […] A detailed description of the long-term intermittent hypoxia (LTIH) protocol was recently published. An automated nitrogen/oxygen delivery profile system (Oxycycler model A84XOV; Biospherix, Redfield, N.Y.) produced brief reductions in housing chamber ambient oxygen levels from 21% to 10% for 5 sec every 90 sec, resulting in arterial oxyhemoglobin saturation fluctuations between 95-98% and 83-86%. Sham LTIH, with ambient FIO2 fluctuations from 21% to 19% every 90 sec, held arterial oxyhemoglobin values constant between 96-98%. Both conditions were produced for 10 hr of the lights-on period for a total of 8 wks. Humidity, ambient CO2 and environmental temperature were held constant. To determine if NADPH oxidase inhibition would also prevent LTIH gene responses, a third series of mice examined for gene responses were WT mice treated systemically throughout LTIH or sham LTIH with 3 mg/kg/day apocynin (Sigma-Aldrich) in DMSO, DMSO or PBS delivered subcutaneously (n=10/group) by way of micro-osmotic pump (1002, Durect, Cupertino, Calif.). […] Lateral basal forebrain iNOS activity was compared in mice treated with or without apocynin throughout LTIH (FIG. 5D). Apocynin therapy, relative to saline therapy had no effect on baseline (sham LTIH) iNOS activity. […] Thus, apocynin therapy throughout LTIH prevented the expected increase in iNOS activity.

TNF-α mRNA = experiment: Taqman real-time PCR of TNF-α gene response to LTIH, lateral basal forebrain; assay type: in vivo, mice
From the text: A detailed description of the long-term intermittent hypoxia (LTIH) protocol was recently published. An automated nitrogen/oxygen delivery profile system (Oxycycler model A84XOV; Biospherix, Redfield, N.Y.) produced brief reductions in housing chamber ambient oxygen levels from 21% to 10% for 5 sec every 90 sec, resulting in arterial oxyhemoglobin saturation fluctuations between 95-98% and 83-86%. Sham LTIH, with ambient FIO2 fluctuations from 21% to 19% every 90 sec, held arterial oxyhemoglobin values constant between 96-98%. Both conditions were produced for 10 hr of the lights-on period for a total of 8 wks. Humidity, ambient CO2 and environmental temperature were held constant. To determine if LTIH results in lasting increases in NADPH oxidase and microglial gene responses, real-time Taqman PCR was performed on laser-captured microdissections or macropunches of selected brain regions in mice exposed to sham LTIH or LTIH, two weeks into recovery to parallel sleep studies, using our methods, as previously published (12, 25). Real-time measurement of a NADPH oxidase subunit (p67^phox). To accomplish this, two weeks following conditions of either sham LTIH or LTIH, mice were perfused with PBS; brains were immediately frozen and sectioned (10 μm) for laser-capture microdissections of the following wake-active or hypoxia sensitive regions: frontal cortex (layer V), nucleus basalis […]/substantia inominata/horizontal diagonal band, hippocampus CA1, striatum, lateral hypothalamus, dorsal raphe nucleus, and locus coeruleus, or the following sleep-active adjacent brain regions: median septal diagonal band, medial preoptic area, and ventrolateral preoptic area, collecting 100 captures (40 μm diameter) per region in each mouse (n=6 mice/condition). RNA was purified and cDNA created for primer sets for primer/probe sets in Table 1, for Taqman real time PCR (SDS-7900HT, ABI). […] A second series of mice used for LTIH gene responses were gp91^phox-/- and +/+ mice exposed to either sham LTIH or LTIH for proinflammatory responses. […]

iNOS mRNA = experiment: Taqman real-time PCR of iNOS gene response to LTIH, lateral basal forebrain; assay type: in vivo, mice; conditions: apocynin throughout LTIH
From the text: (§1) A detailed description of the long-term intermittent hypoxia (LTIH) protocol was recently published. An automated nitrogen/oxygen delivery profile system (Oxycycler model A84XOV; Biospherix, Redfield, N.Y.) produced brief reductions in housing chamber ambient oxygen levels from 21% to 10% for 5 sec every 90 sec, resulting in arterial oxyhemoglobin saturation fluctuations between 95-98% and 83-86%. Sham LTIH, with ambient FIO2 fluctuations from 21% to 19% every 90 sec, held arterial oxyhemoglobin values constant between 96-98%. Both conditions were produced for 10 hr of the lights-on period for a total of 8 wks. Humidity, ambient CO2 and environmental temperature were held constant. To determine if LTIH results in lasting increases in NADPH oxidase and microglial gene responses, real-time Taqman PCR was performed on laser-captured microdissections or macropunches of selected brain regions in mice exposed to sham LTIH or LTIH, two weeks into recovery to parallel sleep studies, using our methods, as previously published (12, 25). Real-time measurement of a NADPH oxidase subunit (p67^phox). […]

WT mice exposed to LTIH = experiment: Sleep/wake recordings and murine multiple sleep latency test after long-term intermittent hypoxia (LTIH); assay type: in vivo; conditions: for sleep latency: vs LTIH DMSO vehicle-treated mice
From the text: Ten-week old male C57BL/6J (B6) mice, gp91^phox−/− mice (B6.129S6-Cybb^tmldin) backcrossed 12 generations to C57BL/6J 000664 and gp91^phox+/+ (WT) backcrossed substrain C57BL/6J 000664 mice (Jackson Laboratory, Bar Harbor, Me.) were studied. Methods and study protocols were approved in full by the Institutional Animal Care and Use Committee of the University of Pennsylvania, conforming with the revised NIH Office of Laboratory Animal Welfare Policy. Food and water were provided ad libitum. Mice were confirmed pathogen free at the time of studies.
A detailed description of the long-term intermittent hypoxia (LTIH) protocol was recently published. An automated nitrogen/oxygen delivery profile system (Oxycycler model A84XOV; Biospherix, Redfield, N.Y.) produced brief reductions in housing chamber ambient oxygen levels from 21% to 10% for 5 sec every 90 sec, resulting in arterial oxyhemoglobin saturation fluctuations between 95-98% and 83-86%. Sham LTIH, with ambient FIO2 fluctuations from 21% to 19% every 90 sec, held arterial oxyhemoglobin values constant between 96-98%. Both conditions were produced for 10 hr of the lights-on period for a total of 8 wks. Humidity, ambient CO2 and environmental temperature were held constant.
To determine if NADPH oxidase inhibition would also prevent LTIH gene responses, a third series of mice examined for gene responses were WT mice treated systemically throughout LTIH or sham LTIH with 3 mg/kg/day apocynin (Sigma-Aldrich) in DMSO, DMSO or PBS delivered subcutaneously (n=10/group) by way of micro-osmotic pump (1002, Durect, Cupertino, Calif.).
After 8 wks of LTIH or sham LTIH exposures, mice were returned to normoxic conditions for 1 wk. Surgical implantation of electrodes and electrophysiological recordings followed using previously described electrode implantation methods (32). Following 3 d post-operative recovery, mice were connected to recording cables in individual cages, and 4 d later sleep recordings were initiated (beginning 2 wk into recovery from LTIH). Baseline sleep was recorded for 5 days. On recording day 6, a baseline murine multiple sleep latency test (MMSLT) was performed (4 nap opportunities between 2 p.m. and 4 p.m.) to measure baseline sleep propensity (33). On recording day 7, sleep deprivation was performed for 6 hours of the light period (8 a.m. to 2 p.m.), followed by a second MSLT and then recovery sleep was recorded for 12 h. The behavioral state acquisition and analysis program used for these studies was ACQ 3.4 (34), with modifications and behavioral state parameters as previously described (7, 9, 32). Primary variables were total sleep time/24 hr, total NREM sleep time/24 hr and REM sleep time/24 hr, and average sleep latency, before and after short-term sleep loss.
To further investigate the role of NADPH oxidase in the LTIH-induced hypersomnolence and sleepiness, a series of WT mice were implanted with osmotic pumps to systemically deliver either a selective NADPH oxidase inhibitor, apocynin at 3 mg/kg/day, vehicle (dimethylsulfoxide, DMSO) or buffered saline throughout LTIH exposure for 8 wks. Pumps were removed and mice were implanted for sleep recordings as described above for studies in gp91^phox null mice. Apocynin therapy prevented both LTIH reduced wake times and shortened sleep latency.

COX-2 mRNA = experiment: Taqman real-time PCR of COX-2 gene response to LTIH, lateral basal forebrain; assay type: in vivo, mice; conditions: apocynin in DMSO vehicle throughout LTIH
From the text: as §1

[1] = apocynin 3 mg/kg/day throughout LTIH

Compound: COc1cc(C(C)=O)ccc1O [apocynin, 4-hydroxy-3′-methoxy-acetophenon]
- reduction in iNOS activity, apocynin treated vs. untreated mice (iNOS; LTIH): 60%
- LTIH increase in iNOS activity (iNOS): prevented the LTIH increase in iNOS activity
- LTIH increase in iNOS activity (iNOS; listed as Apocynin): prevents the anticipated LTIH increase in iNOS activity
- baseline (sham LTIH) iNOS activity, relative to saline therapy (iNOS; sham LTIH): no effect
- LTIH increase in TNF-α gene expression (vs sham LTIH) (TNF-α mRNA; apocynin throughout LTIH): completely prevented the increases in TNF-α gene expression
- TNF-α response as % of the saline LTIH response (TNF-α mRNA; apocynin throughout LTIH): 7%
- LTIH TNF-α response, Apo vs. DMSO, % lower (TNF-α mRNA; apocynin vs DMSO vehicle during LTIH): 73%
- reduction in iNOS mRNA (iNOS mRNA): 94%
- NREMS time (WT mice exposed to LTIH; apocynin 3 mg/kg/day by osmotic pump throughout 8 wks LTIH, relative to saline and DMSO vehicle): reduced NREMS time
- wake time/24 hr (WT mice exposed to LTIH; apocynin 3 mg/kg/day by osmotic pump throughout 8 wks LTIH, relative to saline and DMSO vehicle, 2 wk into recovery): increased wake times; also recorded: prevented LTIH-induced impaired wakefulness and hypersomnolence
- sleep latency vs WT mice without intervention or sham LTIH (WT mice exposed to LTIH; [1]): not significantly different
- sleep latency (WT mice exposed to LTIH; [1]): significantly higher than LTIH DMSO vehicle-treated mice
- sleep latency (WT mice exposed to LTIH; apocynin 3 mg/kg/day throughout LTIH, listed as Apocynin): prevented LTIH reduced sleep latency
- COX-2 gene expression, reduction relative to sham LTIH (COX-2 mRNA): 65%
- LTIH COX-2 response (COX-2 mRNA): completely blocked the LTIH COX-2 response
